According to patent publication US9765187B2, “MRI contrasting agent for contrasting cancer cell” (SNU R&DB FOUNDATION, priority 2014, dated 2017):

Tested on: HCT116 cells
Assay: pH-dependent cellular uptake (flow cytometry, fluorescence)
Assay type: cell-based, human
Conditions: fluorescence and flow cytometry
Method: HCT116 cells were exposed to PMNs, InS-NPs and Ce6 at different pHs to verify their cellular uptake respectively. The cells were incubated for 2 h, washed, harvested, and re-suspended with DPBS. In vitro cellular uptake was quantified using a flow cytometer (Beckman, San Jose, Calif., USA). For each sample 10,000 cells (gated events) were counted, and free Ce6 fluorescence was detected with logarithmic settings (FL4; λem=670 nm). Cells were counted as positive if their fluorescence (FL4) was higher than that of cells from an untreated cell suspension. Each experiment was analyzed statistically using the CXP Analysis Program.
The tumor cellular uptake of PMNs was monitored at different pH conditions (pH 7.4 and 6.8) using a KODAK In vivo Image Station (Image Station 4000 MM; Kodak, New Haven, Conn., USA) and a flow cytometer (Beckman, San Jose, Calif., USA). HCT116 cells (1×10^5 cells/mL) were incubated with each sample for 2 h in RPMI-1640 medium (pH 7.4 or 6.8, with 1% penicillin-streptomycin) at 37° C. and then analyzed. To ameliorate photobleaching during microscope observation, a drop of anti-fade mounting solution (5% N-propyl gallate, 47.5% glycerol, and 47.5% Tris-HCl, pH 8.4) was added to the cells.

With chlorin E6 [Ce6] the “cellular uptake at pH 6.8 versus pH 7.4” value was “not affected by changes in pH”.
